Read-outs that look alike come from different tables or passages of the source.
Biological target: T1, human mGluR5A (Homo sapiens, UniProt P41594)
T1 construct: expressed in transfected cells; host or cells: CHO (Chinese Hamster Ovary) cells, kept under Puromycin and Zeocin selection
Experiment: Fluorescent Ca2+ mobilization (FLIPR) assay, potentiation of a sub-threshold (EC20, 300 nM) glutamate response
Type: cell-based
Conditions: CHO cells expressing human mGluR5A, potentiation in the presence of 300 nM glutamate
Excerpt: The utility of the compounds in accordance with the present invention as positive allosteric modulators of metabotropic glutamate receptor activity, in particular mGluR5 activity, may be readily determined without undue experimentation by methodology well known in the art, including O'Brien et al., Molecular Pharmacology 2003, 64(3) 731-740. In particular, the compounds of the following examples had activity in reference assays by enhancing mGluR5 activity. […] Changes in intracellular Ca^2+ were measured with Fluo-4AM ester (Invitrogen/Molecular Probes), which was detected on a Fluorometric Imaging Plate Reader (FLIPR, Molecular Devices, Sunnyvale, Calif.). In a typical experiment the mGluR5 positive allosteric modulatory activity of the compounds of the present invention was determined in accordance with the following experimental method.
Chinese Hamster Ovary (CHO) cells expressing human mGluR5A were maintained in growth medium containing DMEM, 10% dialyzed Fetal Bovine Serum, 50 units/mL Penicillin, 50 ug/mL Streptomycin, 2 mM L-glutamine, 1×MEM non-essential amino acids, 1 mM sodium pyruvate, 25 mM HEPES, 55 uM 2-mercaptoethanol, 5 ug/mL Puromycin, and 250 ug/mL Zeocin at 37° C. and 5% CO2. The day before the experiment, the cells were washed and seeded in “plating media” containing only DMEM, 10% dialyzed Fetal Bovine Serum, 50 units/mL Penicillin, and 50 ug/mL Streptomycin at a density of 50,000 cells/well (100 uL/well) in black 384-well clear-bottom PDL-coated plates. The cells were grown overnight at 37° C. and 6% CO2. This overnight glutamine/glutamate starvation allowed for consistent expression of the mGluR5A receptor, and the ability to add a known amount of agonist (glutamate in most cases) on the day of the experiment.
The day of the experiment, the cells were washed with 37° C. Assay Buffer (Hanks Balanced Salt Solution with CaCl2 and MgCl2, 20 mM HEPES, 2.5 mM Probenecid, 0.1% BSA) with an automated plate washer (3×100 uL, aspiration 3 mm from bottom leaving ˜30 uL of buffer in each well). After washing, 30 uL of dye loading buffer (4 uM Fluo-4AM, 0.04% Pluronic acid, and 1% dialyzed FBS in assay buffer) were added to each well of the plates for 2 uM Fluo-4AM final concentration. The plates were incubated at 37° C. and 6% CO2 for 1 hour to allow for dye loading. After dye loading, the cells were washed again as above, and placed on the FLIPR. Assays were conducted with two possible scenarios: 1) To determine the potencies of the compounds, as either agonists of mGluR5 or potentiators of mGluR5 in the presence of a sub-threshold amount of glutamate, 10-point titrations of the compounds (1:3 dilution between each point, 30-0.0015 uM final concentrations) were added to the cells, followed by the addition of the EC20 of glutamate (300 nM) to the cells. 2) To determine the cooperativity of the compounds with the natural agonist (glutamate), single concentrations of the compounds were added to the cells, followed by the addition of a 10-point titration of glutamate (1:3 dilution between each point, 1000-0.05 uM final concentrations). […] For both scenarios above, operation of the FLIPR was the same. Baseline fluorescence was monitored for 10 seconds, followed by the addition of compounds diluted in Assay Buffer (1% DMSO concentration after this addition, 0.66% final DMSO concentration after agonist addition). After monitoring fluorescence for 5 minutes, during which time any intrinsic agonist activity of the compounds would have been detected, the agonist (glutamate) also diluted in assay buffer was then added to the cells. The response was then monitored for an additional 3 minutes. In scenario #1, the peak during the final 3 minutes was used for potentiator data, and the peak during the 5 minutes post compound addition was used for compound agonist data. […]

[1] = about/generally, read-out: EC50 for potentiating/enhancing the mGluR5 receptor in the FLIPR assay
[2] = inflection points, read-out: Representative FLIPR EC50 Values

T1 sequence (P41594 21-1180 isoform P41594-2 limits assumed): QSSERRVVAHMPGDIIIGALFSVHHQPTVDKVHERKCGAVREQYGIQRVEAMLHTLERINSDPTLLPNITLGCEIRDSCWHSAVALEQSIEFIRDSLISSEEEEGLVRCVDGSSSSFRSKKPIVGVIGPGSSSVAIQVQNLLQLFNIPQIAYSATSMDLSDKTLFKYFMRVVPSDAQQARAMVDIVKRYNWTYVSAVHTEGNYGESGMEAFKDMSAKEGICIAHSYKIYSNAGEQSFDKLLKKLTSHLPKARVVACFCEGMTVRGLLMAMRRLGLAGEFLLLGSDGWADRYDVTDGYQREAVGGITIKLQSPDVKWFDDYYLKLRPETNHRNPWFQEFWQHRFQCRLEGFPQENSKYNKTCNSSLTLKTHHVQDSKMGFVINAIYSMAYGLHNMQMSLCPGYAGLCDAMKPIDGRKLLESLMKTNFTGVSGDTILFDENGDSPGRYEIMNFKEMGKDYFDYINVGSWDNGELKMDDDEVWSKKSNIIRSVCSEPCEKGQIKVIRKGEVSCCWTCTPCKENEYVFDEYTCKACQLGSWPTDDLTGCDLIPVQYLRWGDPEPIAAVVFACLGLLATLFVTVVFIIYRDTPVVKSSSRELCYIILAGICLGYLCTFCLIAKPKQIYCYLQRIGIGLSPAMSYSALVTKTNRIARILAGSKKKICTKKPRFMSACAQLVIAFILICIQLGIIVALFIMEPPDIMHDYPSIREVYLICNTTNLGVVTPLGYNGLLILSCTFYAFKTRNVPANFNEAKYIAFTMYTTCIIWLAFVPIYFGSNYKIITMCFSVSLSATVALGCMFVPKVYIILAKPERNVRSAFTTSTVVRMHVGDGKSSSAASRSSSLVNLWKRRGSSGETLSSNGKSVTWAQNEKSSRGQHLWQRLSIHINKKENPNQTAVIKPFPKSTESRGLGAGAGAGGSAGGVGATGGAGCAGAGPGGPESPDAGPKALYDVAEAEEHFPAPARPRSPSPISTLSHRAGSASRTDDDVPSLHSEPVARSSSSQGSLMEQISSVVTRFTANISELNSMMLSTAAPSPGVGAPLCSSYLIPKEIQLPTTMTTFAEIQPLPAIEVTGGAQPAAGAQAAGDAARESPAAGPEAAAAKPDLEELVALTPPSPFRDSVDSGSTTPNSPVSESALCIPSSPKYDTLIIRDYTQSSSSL

SMILES	EC50 [1] [nM]	EC50 [2] [nM]
O=C1c2ccccc2OC[C@@H]2CC[C@H](c3nc(-c4cc(Cl)c[nH]4)no3)CN12 [Example 11-8, (6aS,9S)-9-[3-(4-chloro-1H-pyrrol-2-yl)-1,2,4-oxadiazol-5-yl]-6,6a,7,8,9,10-hexahydro-12H-pyrido[2,1-c][1,4]benzoxazepin-12-one]	< 1000	71
Cc1c[nH]c(-c2noc(C3CCC4C=Cc5ccccc5C(=O)N4C3)n2)c1 (racemic) [Example 7-7, (±) cis-(Z)-3-[3-(4-methyl-1H-pyrrol-2-yl)-1,2,4-oxadiazol-5-yl]-1,3,4,12a-tetrahydropyrido[1,2-b][2]benzazepin-6(2H)-one]	< 1000	31
Cc1c[nH]c(-c2noc([C@H]3CC[C@H]4CCc5ccccc5C(=O)N4C3)n2)c1 [Example 1-5, cis-(3S,12aS)-3-(3-(4-Methyl-1H-pyrrol-2-yl)-1,2,4-oxadiazol-5-yl)-1,3,4,11,12,12a-hexahydrobenzo[e]pyrido[1,2-a]azepin-6(2H)-one]	< 1000	16
N#Cc1ccc2c(c1)CCC1CCC(c3nc(-c4cc(Cl)c[nH]4)no3)CN1C2=O (racemic) [Example 18-1, (±) cis-9-cyano-3-[3-(4-chloro1H-pyrrol-2-yl)-1,2,4-oxadiazol-5-yl]-1,3,4,11,12,12a-hexahydropyrido[1,2-b][2]benzazepin-6(2H)-one]	< 1000	50
COc1ccc2c(n1)CC[C@@H]1CC[C@H](c3nc(-c4cc(Cl)c[nH]4)no3)CN1C2=O [Example 13-2, (8S,10aS)-8-[3-(4-chloro-1H-pyrrol-2-yl)-1,2,4-oxadiazol-5-yl]-2-methoxy-8,9,10,10a,11,12-hexahydrodipyrido[1,2-a:2′,3′-e]azepin-5(7H)-one]	< 1000	
O=C1c2ccc(F)cc2CC[C@@H]2CC[C@H](c3nc(-c4cc(Cl)c[nH]4)no3)CN12 [Example 3-1, (3S,12aS)-9-Fluoro-3-[3-(4-chloro1H-pyrrol-2-yl)-1,2,4-oxadiazol-5-yl]-1,3,4,11,12,12a-hexahydropyrido[1,2-b][2]benzazepin-6(2H)-one]	< 1000	8

Now from value to compound:

EC50 [1] [nM]	EC50 [2] [nM]	SMILES
< 1000		O=C1c2ccc(F)cc2C(F)(F)C[C@@H]2CC[C@H](c3nc(-c4ccc(F)cn4)no3)CN12 (racemic) [Example 20-3, (±) cis-9,11,11-trifluoro-3-[3-(5-fluoropuridin-2-yl)-1,2-4-oxadiazol-5-yl]-1,3,4,11,12,12a-hexahydropyrido[1,2-b][2]benzazepin-6(2H)-one]
< 1000		O=C1c2cnc(F)cc2CC[C@@H]2CC[C@H](c3noc(-c4ccc(F)cn4)n3)CN12 (single isomer, unassigned) [Example 24-6]
